In patent US20240261224A1, “FORMULATION OF A PAN-JAK INHIBITOR” (KINASET THERAPEUTICS, INC., priority 2022, published 2024):
Read-outs that look alike come from different tables or passages of the source.

Tests used:
[1] = Phase 1 Part 2 plasma pharmacokinetics (mild asthma); type: in vivo, human; settings: for AUC0-12h / AUC(0-t) / AUC(0-inf) / AUC / Cmax: human, plasma, inhaled
Text: Day 10 pharmacokinetic parameters for Parts 2 and 3 of Phase I are summarized below in Table 28. Part 2 involved the administration of 4 different dose regimens, to subjects with mild asthma naïve to ICS therapy, over a 10-day period. Each separate cohort comprised 6 subjects receiving active treatment with 2 receiving matching placebo. Blood samples were collected to enable the measurement of Compound I concentrations in plasma. The resultant data was used to determine the PK parameters at Day 10 representing the Day on which the final dose was received.

JAK1 = JAK1 (Homo sapiens, UniProt P23458); settings: cited from earlier work
Sequence of JAK1 (P23458 whole entry): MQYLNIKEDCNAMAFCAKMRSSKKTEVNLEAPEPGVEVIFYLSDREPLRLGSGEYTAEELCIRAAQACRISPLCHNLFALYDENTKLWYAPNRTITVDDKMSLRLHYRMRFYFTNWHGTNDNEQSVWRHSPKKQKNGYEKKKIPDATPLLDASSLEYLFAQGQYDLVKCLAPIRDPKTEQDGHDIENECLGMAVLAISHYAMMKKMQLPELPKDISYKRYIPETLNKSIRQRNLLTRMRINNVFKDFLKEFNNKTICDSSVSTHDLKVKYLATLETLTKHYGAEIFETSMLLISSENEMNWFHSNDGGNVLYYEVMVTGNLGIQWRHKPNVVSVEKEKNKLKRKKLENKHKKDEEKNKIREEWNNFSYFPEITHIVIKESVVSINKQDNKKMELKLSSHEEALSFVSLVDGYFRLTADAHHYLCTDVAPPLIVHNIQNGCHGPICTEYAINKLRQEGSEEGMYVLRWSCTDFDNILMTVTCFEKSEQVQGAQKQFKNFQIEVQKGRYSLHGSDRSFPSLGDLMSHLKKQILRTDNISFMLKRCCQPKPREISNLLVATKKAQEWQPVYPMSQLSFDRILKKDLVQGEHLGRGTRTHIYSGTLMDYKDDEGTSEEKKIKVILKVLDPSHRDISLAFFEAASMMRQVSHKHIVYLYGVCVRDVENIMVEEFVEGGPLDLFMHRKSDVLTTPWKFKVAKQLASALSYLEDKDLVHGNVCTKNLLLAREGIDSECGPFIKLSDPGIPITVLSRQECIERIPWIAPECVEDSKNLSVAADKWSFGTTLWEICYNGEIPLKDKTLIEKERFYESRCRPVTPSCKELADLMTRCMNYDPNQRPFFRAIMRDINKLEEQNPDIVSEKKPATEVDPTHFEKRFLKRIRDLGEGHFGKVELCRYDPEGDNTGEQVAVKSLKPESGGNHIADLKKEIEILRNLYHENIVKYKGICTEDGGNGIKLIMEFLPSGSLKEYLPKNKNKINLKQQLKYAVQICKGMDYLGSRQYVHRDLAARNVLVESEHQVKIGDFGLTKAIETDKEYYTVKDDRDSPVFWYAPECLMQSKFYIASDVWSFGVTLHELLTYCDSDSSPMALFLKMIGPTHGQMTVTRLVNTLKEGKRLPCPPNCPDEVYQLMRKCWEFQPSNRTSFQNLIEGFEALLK

[2] = Margin of safety study versus 13-wk NHP NOAEL; type: in vivo
Text: Results from the margin of safety study of lactose/MgSt-based formulations of Compound I are shown below in Table 17.

[3] = 4.0 mg BID vs 13-week NHP study

## Cn1c(=O)n([C@H]2CCCN(C(=O)CC#N)C2)c2nc(-c3cnn4ccccc34)ccc21 [Compound I, (S)-3-(3-(1-methyl-2-oxo-5-(pyrazolo[1,5-a]pyridine-3-yl)-1H-imidazo[4,5-b]pyridine-3(2H)-yl)piperidin-1-yl)-3-oxopropanenitrile]
[1]; 8 mg BID, Day 10
  Cmax Max: 91,500 pg/ml
  Cmax Min: 45,400 pg/ml
  Ctrough Geometric mean: 17,666 pg/ml
  Ctrough Max: 40,600 pg/ml
  Ctrough Mean: 21,835 pg/ml
  Ctrough Min: 6,090 pg/ml
[1]; 0.6 mg, 0.6 mg QD, Day 10, read-out: AUC0-12 hours Geometric mean
  AUC0-12h: 14.9 ng·h/mL
[1]; 0.6 mg, 0.6 mg QD, Day 10, read-out: AUC0-12 hours Mean
  AUC0-12h: 16.1 ng·h/mL
[1]; 0.6 mg, 0.6 mg QD, Day 10, read-out: AUC0-24 hours Geometric mean
  AUC(0-t): 20.3 ng·h/mL
[1]; 0.6 mg, 0.6 mg QD, Day 10, read-out: AUC0-24 hours Mean
  AUC(0-t): 22.5 ng·h/mL
[1]; 0.6 mg, 0.6 mg QD, Day 10, read-out: AUC0-last non-zero Geometric mean
  AUC(0-t): 23.4 ng·h/mL
[1]; 0.6 mg, 0.6 mg QD, Day 10, read-out: AUC0-last non-zero Mean
  AUC(0-t): 26.7 ng·h/mL
[1]; 0.6 mg, 0.6 mg QD, Day 10, read-out: AUC0-∞ Geometric mean
  AUC(0-inf): 24.3 ng·h/mL
[1]; 0.6 mg, 0.6 mg QD, Day 10, read-out: AUC0-∞ Mean
  AUC(0-inf): 28 ng·h/mL
[1]; 0.6 mg, 0.6 mg QD, Day 10, read-out: AUCover dosing interval Geometric mean
  AUC: 20.3 ng·h/mL
[1]; 0.6 mg, 0.6 mg QD, Day 10, read-out: AUCover dosing interval Mean
  AUC: 22.5 ng·h/mL
[1]; 0.6 mg, 0.6 mg QD, Day 10, read-out: Cmax Geometric mean
  Cmax: 1.86 ng/mL
[1]; 0.6 mg, 0.6 mg QD, Day 10, read-out: Cmax Mean
  Cmax: 1.97 ng/mL
[1]; 2 mg, 2 mg QD, Day 10, read-out: AUC0-12 hours Geometric mean
  AUC0-12h: 51.9 ng·h/mL
[1]; 2 mg, 2 mg QD, Day 10, read-out: AUC0-12 hours Mean
  AUC0-12h: 55.2 ng·h/mL
[1]; 2 mg, 2 mg QD, Day 10, read-out: AUC0-24 hours Geometric mean
  AUC(0-t): 71.9 ng·h/mL
[1]; 2 mg, 2 mg QD, Day 10, read-out: AUC0-24 hours Mean
  AUC(0-t): 76.4 ng·h/mL
[1]; 2 mg, 2 mg QD, Day 10, read-out: AUC0-last non-zero Geometric mean
  AUC(0-t): 82.2 ng·h/mL
[1]; 2 mg, 2 mg QD, Day 10, read-out: AUC0-last non-zero Mean
  AUC(0-t): 87.4 ng·h/mL
[1]; 2 mg, 2 mg QD, Day 10, read-out: AUC0-∞ Geometric mean
  AUC(0-inf): 83.9 ng·h/mL
[1]; 2 mg, 2 mg QD, Day 10, read-out: AUC0-∞ Mean
  AUC(0-inf): 89.2 ng·h/mL
[1]; 2 mg, 2 mg QD, Day 10, read-out: AUCover dosing interval Geometric mean
  AUC: 71.9 ng·h/mL
[1]; 2 mg, 2 mg QD, Day 10, read-out: AUCover dosing interval Mean
  AUC: 76.4 ng·h/mL
[1]; 2 mg, 2 mg QD, Day 10, read-out: Cmax Geometric mean
  Cmax: 6.19 ng/mL
[1]; 2 mg, 2 mg QD, Day 10, read-out: Cmax Mean
  Cmax: 6.46 ng/mL
[1]; 4 mg, 4 mg BID, Day 10, read-out: AUC0-12 hours Geometric mean
  AUC0-12h: 194 ng·h/mL
[1]; 4 mg, 4 mg BID, Day 10, read-out: AUC0-12 hours Mean
  AUC0-12h: 237 ng·h/mL
[1]; 4 mg, 4 mg BID, Day 10, read-out: AUC0-24 hours Geometric mean
  AUC(0-t): 241 ng·h/mL
[1]; 4 mg, 4 mg BID, Day 10, read-out: AUC0-24 hours Mean
  AUC(0-t): 299 ng·h/mL
[1]; 4 mg, 4 mg BID, Day 10, read-out: AUC0-last non-zero Geometric mean
  AUC(0-t): 278 ng·h/mL
[1]; 4 mg, 4 mg BID, Day 10, read-out: AUC0-last non-zero Mean
  AUC(0-t): 355 ng·h/mL
[1]; 4 mg, 4 mg BID, Day 10, read-out: AUC0-∞ Geometric mean
  AUC(0-inf): 282 ng·h/mL
[1]; 4 mg, 4 mg BID, Day 10, read-out: AUC0-∞ Mean
  AUC(0-inf): 359 ng·h/mL
[1]; 4 mg, 4 mg BID, Day 10, read-out: AUCover dosing interval Geometric mean
  AUC: 194 ng·h/mL
[1]; 4 mg, 4 mg BID, Day 10, read-out: AUCover dosing interval Mean
  AUC: 237 ng·h/mL
[1]; 4 mg, 4 mg BID, Day 10, read-out: Cmax Geometric mean
  Cmax: 26.8 ng/mL
[1]; 4 mg, 4 mg BID, Day 10, read-out: Cmax Mean
  Cmax: 31.5 ng/mL
[1]; 8 mg, 8 mg BID, Day 10, read-out: AUC0-12 hours Geometric mean
  AUC0-12h: 418 ng·h/mL
[1]; 8 mg, 8 mg BID, Day 10, read-out: AUC0-12 hours Mean
  AUC0-12h: 458 ng·h/mL
[1]; 8 mg, 8 mg BID, Day 10, read-out: AUC0-24 hours Geometric mean
  AUC(0-t): 545 ng·h/mL
[1]; 8 mg, 8 mg BID, Day 10, read-out: AUC0-24 hours Mean
  AUC(0-t): 612 ng·h/mL
[1]; 8 mg, 8 mg BID, Day 10, read-out: AUC0-last non-zero Geometric mean
  AUC(0-t): 662 ng·h/mL
[1]; 8 mg, 8 mg BID, Day 10, read-out: AUC0-last non-zero Mean
  AUC(0-t): 745 ng·h/mL
[1]; 8 mg, 8 mg BID, Day 10, read-out: AUC0-∞ Geometric mean
  AUC(0-inf): 664 ng·h/mL
[1]; 8 mg, 8 mg BID, Day 10, read-out: AUC0-∞ Mean
  AUC(0-inf): 747 ng·h/mL
[1]; 8 mg, 8 mg BID, Day 10, read-out: AUCover dosing interval Geometric mean
  AUC: 418 ng·h/mL
[1]; 8 mg, 8 mg BID, Day 10, read-out: AUCover dosing interval Mean
  AUC: 458 ng·h/mL
[1]; 8 mg, 8 mg BID, Day 10, read-out: Cmax Geometric mean
  Cmax: 57.7 ng/mL
[1]; 8 mg, 8 mg BID, Day 10, read-out: Cmax Mean
  Cmax: 60.4 ng/mL
JAK1
  Inhibition of JAK1: potent inhibitor
[2]; [3]
  MoS versus inhalation toxicology study NOAELs, Lung exposure (mg/g lung): 50
  MoS versus inhalation toxicology study NOAELs, Plasma (group mean AUC0-24): 3.2
[2]; 4.0 mg BID vs 13-wk NHP NOAEL
  Group mean AUC0-24 MoS (Phase 1 clinical study versus inhalation tox study NOAELs): 3.2
[2]; 4.0 mg BID vs 13-wk NHP NOAEL, adjusted for respirability assuming 10%, 25% and 100% lung deposition in rat, NHP and human
  Lung dose of Compound I (mg/g) MoS: 50
